# Measured values as given in ChEMBL document CHEMBL1201862, “PubChem BioAssay data set” (2004).
# Activity calls are given as the source filed them.
# Columns and labels:
# [1] = target: T1, High affinity choline transporter 1 (Homo sapiens, UniProt Q9GZV3); experiment: human choline transporter blockers, potency – cell-based, 5-point CRC, membrane potential dye, dose response (AID 504840); type: functional
# T1 sequence (Q9GZV3 whole entry): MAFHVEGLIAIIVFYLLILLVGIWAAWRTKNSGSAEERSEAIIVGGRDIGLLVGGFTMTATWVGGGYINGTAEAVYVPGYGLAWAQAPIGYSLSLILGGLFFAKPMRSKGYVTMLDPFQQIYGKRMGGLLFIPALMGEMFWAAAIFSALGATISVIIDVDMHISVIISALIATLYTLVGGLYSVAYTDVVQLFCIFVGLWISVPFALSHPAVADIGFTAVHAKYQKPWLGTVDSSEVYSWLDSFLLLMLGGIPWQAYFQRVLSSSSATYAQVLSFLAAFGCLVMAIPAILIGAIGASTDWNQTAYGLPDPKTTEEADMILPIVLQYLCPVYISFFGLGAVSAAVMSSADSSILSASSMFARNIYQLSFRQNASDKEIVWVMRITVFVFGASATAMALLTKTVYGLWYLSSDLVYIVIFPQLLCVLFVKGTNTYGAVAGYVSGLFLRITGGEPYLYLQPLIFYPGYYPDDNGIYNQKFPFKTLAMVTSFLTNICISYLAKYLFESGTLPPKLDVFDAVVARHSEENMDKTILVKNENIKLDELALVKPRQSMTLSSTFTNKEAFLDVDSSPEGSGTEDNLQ
# [2] = THP-1 cell cytotoxicity, dose response, cytotoxicity control for non-replicating M. tuberculosis project (AID 489025); type: functional
# cells = type: functional
# [3] = viability of HCT116 lacking mutant beta-catenin – cell-based, human colon tumor, dose response (AID 1045); type: functional;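 also: HCT116 colon tumor cells with beta catenin knocked out; cells exposed to compound for 60 hours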
# [4] = viability of PTEN-deleted HCT116 cells – cell-based, HCT116 PTEN knockout, dose response (AID 1047); type: functional;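 also: HCT116 colon tumor cells with PTEN knocked out; cells exposed to compound for 60 hours before readout; potency for loss of cell viability measured by luminescence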
# [5] = Trypanosoma cruzi growth suppression in host cells – NIH3T3 host cells, beta-gal luminescence, confirmation (AID 2044); type: functional, cell-based;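 also: intracellular parasites grown in NIH/3T3 mouse fibroblasts as host cells; luminescent beta-galactosidase reporter signal from transgenic T. cruzi replicating inside host cells; inhibitors lower the luminescence signal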
# INS1 = experiment: INS-1E survival protection against cytokine death – cell-based, luminescence, retest, dose response (AID 449756); type: functional; settings: Rattus norvegicus;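 also: cell death triggered by IL-1 beta plus TNF-alpha plus IFN-gamma mixture; protective hits raise ATP signal compared with cytokine alone wells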
# [6] = NIH3T3 cell viability loss – ATP luminescence, mouse fibroblasts, counter-screen, dose response (AID 2010); type: functional, cell-based;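 also: cells exposed to compound for about 90 hours before reading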
# [7] = target: T2, Microphthalmia-associated transcription factor (Homo sapiens, UniProt O75030); experiment: reducers of TRPM1 reporter luminescence, concentration series – cell-based, SK-MEL-5, cherry-picked, set 3, MITF inhibitor project, dose response (AID 493073); type: functional;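 also: SK-MEL-5 melanoma cells with luciferase driven by the MITF target TRPM1 promoter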
# T2 sequence (O75030 whole entry): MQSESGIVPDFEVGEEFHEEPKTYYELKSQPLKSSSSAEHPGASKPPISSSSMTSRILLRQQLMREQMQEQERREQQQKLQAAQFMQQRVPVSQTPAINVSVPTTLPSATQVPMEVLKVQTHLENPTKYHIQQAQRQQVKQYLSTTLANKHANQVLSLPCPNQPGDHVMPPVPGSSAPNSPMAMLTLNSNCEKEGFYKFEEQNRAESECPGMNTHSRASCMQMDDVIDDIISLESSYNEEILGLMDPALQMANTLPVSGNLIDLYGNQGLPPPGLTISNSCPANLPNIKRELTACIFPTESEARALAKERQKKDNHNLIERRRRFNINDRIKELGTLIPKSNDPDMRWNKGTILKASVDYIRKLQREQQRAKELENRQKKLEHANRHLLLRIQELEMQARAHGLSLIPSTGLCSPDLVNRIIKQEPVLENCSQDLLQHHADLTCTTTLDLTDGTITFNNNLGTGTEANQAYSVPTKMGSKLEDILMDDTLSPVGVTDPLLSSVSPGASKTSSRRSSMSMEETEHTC
# [8] = Dd2 malaria parasite growth inhibition potency – SYBR Green, dry powder samples, dose response (AID 1159566); type: functional, cell-based;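 also: potency for growth inhibition with lower SYBR green DNA signal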
# [9] = growth inhibition of yeast DHODH-expressing 3D7 parasites – SYBR Green, dry powder samples, dose response (AID 1159570); type: functional, cell-based;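 also: parasite growth measured after 72 hours of compound exposure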
# [10] = growth inhibition of PfATP4-mutant resistant parasites – NITD609-resistant line, SYBR Green, dry powder, dose response (AID 1159571); type: functional, cell-based;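 also: parasites synchronized at ring stage by sorbitol before testing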
# [11] = P. falciparum Dd2 growth inhibitors, dose response, SYBR Green, cherry-picked samples (AID 1159567); type: functional, cell-based
# [12] = OVCAR-3 cell viability loss – plate reader, dry powder samples, PAX8 inhibitor project, dose response (AID 743044); type: functional, cell-based
# [13] = OVCAR8 cell viability loss – plate reader, dry powder samples, PAX8 project, dose response (AID 743197); type: functional, cell-based; settings: OVCAR-8
# Paired box protein Pax-8 = Paired box protein Pax-8 (Homo sapiens, UniProt Q06710); experiment: PAX8 transcriptional activity inhibition in RMG-I – RMG-I cells, luciferase, cherry-pick, dose response (AID 687027); type: functional, cell-based;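 also: luciferase reporter driven by Pax8 target thyroperoxidase promoter measured by SteadyGlo luminescence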
# Paired box protein Pax-8, sequence (Q06710 whole entry): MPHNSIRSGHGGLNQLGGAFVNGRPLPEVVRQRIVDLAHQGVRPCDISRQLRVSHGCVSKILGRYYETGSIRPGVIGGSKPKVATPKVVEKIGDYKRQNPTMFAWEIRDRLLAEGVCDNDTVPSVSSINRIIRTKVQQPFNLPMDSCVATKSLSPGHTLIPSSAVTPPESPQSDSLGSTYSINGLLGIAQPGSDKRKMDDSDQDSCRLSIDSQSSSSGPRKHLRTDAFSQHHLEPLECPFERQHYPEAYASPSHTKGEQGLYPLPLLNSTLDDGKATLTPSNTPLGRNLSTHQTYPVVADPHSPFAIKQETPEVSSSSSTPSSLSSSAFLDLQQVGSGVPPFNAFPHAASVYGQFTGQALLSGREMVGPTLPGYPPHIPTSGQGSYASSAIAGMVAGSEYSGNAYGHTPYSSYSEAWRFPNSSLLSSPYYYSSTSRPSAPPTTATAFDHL
# [14] = HEK-293T cell viability reduction – luminescence, B-cell screen hits, cytotoxicity control for BCR NF-kB inhibitor project, dose response (AID 489021); type: functional, cell-based;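 also: HEK-293T cells carrying an NF-kB luciferase reporter; cells exposed to compound for about 14 hours before viability readout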
# [15] = Luminescence Cell-Based Dose Confirmation HTS to Identify Inhibitors of Platelet Dense Granule Release. [Related pubchem assays: 1663 (Primary HTS), 1678 (Summary of Project)]; type: functional
# [16] = target: Luciferin 4-monooxygenase (Photinus pyralis, UniProt P08659); experiment: inhibition of purified Photinus pyralis luciferase – biochemical, luminescence, dose response (AID 1891)
# Luciferin 4-monooxygenase, sequence (P08659 whole entry): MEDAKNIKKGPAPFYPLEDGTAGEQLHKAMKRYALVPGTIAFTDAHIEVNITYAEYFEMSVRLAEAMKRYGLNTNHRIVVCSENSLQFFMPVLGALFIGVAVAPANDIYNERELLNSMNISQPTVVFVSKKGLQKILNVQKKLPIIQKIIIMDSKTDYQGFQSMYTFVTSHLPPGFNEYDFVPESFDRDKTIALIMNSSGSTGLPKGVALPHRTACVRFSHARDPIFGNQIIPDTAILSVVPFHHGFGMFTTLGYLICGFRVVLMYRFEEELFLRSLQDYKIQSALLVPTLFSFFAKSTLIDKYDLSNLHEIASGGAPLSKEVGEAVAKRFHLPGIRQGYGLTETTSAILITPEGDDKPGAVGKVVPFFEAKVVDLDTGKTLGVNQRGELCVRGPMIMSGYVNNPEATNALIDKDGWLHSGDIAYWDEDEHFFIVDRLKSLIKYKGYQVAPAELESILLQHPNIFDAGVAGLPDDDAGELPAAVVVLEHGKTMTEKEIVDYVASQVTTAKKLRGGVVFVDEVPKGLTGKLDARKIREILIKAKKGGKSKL
smiles,measurement,setting,value
CN(C)CCCn1c(=O)n(C2CCCCC2)c(=O)c2c3c(sc21)CCCCC3,IC50,[1],8.71 µM (active)
same,CC50,[2],23.8 µM (active)
same,IC50,cells,24.9 µM (active)
Cn1c(SCC(=O)N/N=C/c2ccc([N+](=O)[O-])s2)nnc1-c1ccccc1,EC50,[3],4.99 µM (active)
same,EC50,[4],4.9 µM (active)
same,EC50,[5],0.634 µM (active)
same,AC50,INS1,3.5 µM (active)
same,EC50,[6],19.8 µM (active)
same,AC50,[7],4.28 µM (active)
COc1ccc(C(=O)NC(C)c2nccs2)cc1OC1CCN(C(C)C)CC1 (configuration not stated),IC50,[1],12.9 µM (active)
Cc1ccc(S(=O)(=O)N(C)C[C@H]2OCc3ccccc3-c3c(n(C)c4ccccc34)C(=O)N([C@@H](C)CO)C[C@@H]2C)cc1,AC50,[8],0.818 µM (active)
same,AC50,[9],1.21 µM (active)
same,AC50,[10],0.807 µM (active)
same,AC50,[11],1.53 µM (active)
CCCc1cn(CC[C@@H]2CC[C@H](NS(=O)(=O)c3ccc(-c4ccccc4)cc3)[C@H](CO)O2)nn1,AC50,[8],0.332 µM (active)
same,AC50,[9],0.916 µM (active)
same,AC50,[10],0.883 µM (active)
same,AC50,[11],1.39 µM (active)
O=C(C1CCCCC1)N1[C@H](CO)[C@@H](c2ccccc2)C12CN(Cc1cccc(Cl)c1)C2,AC50,[8],0.353 µM (active)
same,AC50,[9],0.651 µM (active)
same,AC50,[10],0.606 µM (active)
same,AC50,[11],1.43 µM (active)
O=C(NC(=S)NCc1ccccc1)c1ccccc1,AC50,[7],22.1 µM (active)
CCc1cc(CC)c(/C=N/NC(N)=O)c(CC)c1/C=N/NC(N)=O,IC50,[1],11.1 µM (active)
C[C@H]1CCCCO[C@H](CN(C)S(=O)(=O)c2ccc(F)cc2)[C@@H](C)CN([C@@H](C)CO)C(=O)c2cc(NS(=O)(=O)c3ccc(Cl)cc3)ccc2O1,AC50,[12],49.2 µM (active)
same,AC50,[13],60.6 µM (active)
same,AC50,Paired box protein Pax-8,5.92 µM (active)
CCN1C(=O)Nc2cccc3cccc1c23,IC50,[14],> 80 µM (inactive)
same,EC50,[15],7.12 µM (active)
same,EC50,[16],> 112 µM (not active)
O=S(=O)(c1ccc(N2CCCC2)nc1)N1CCCC1,IC50,[1],8.93 µM (active)
Cc1ccc(NC(S)=NNC(=O)C2CC2c2ccc(C)cc2)cc1 (configuration not stated),IC50,[1],13.2 µM (active)
